In general, IC50 refers to the concentration that inhibits the measured activity by half. For orientation: AC50 means the concentration at which the activity in the assay is half-maximal. As a reminder, the Ki is a measure of affinity in units of concentration, obtained from inhibition or displacement.

Holding throughout (format): functional
The target of assay [1] is T1, Sentrin-specific protease 6 (Homo sapiens, UniProt Q9GZR1).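 Further: Luminescence-based dose-response confirmatory assay of SENP6 inhibition, following up an ultra-high-throughput screen.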
T1 sequence (Q9GZR1 whole entry): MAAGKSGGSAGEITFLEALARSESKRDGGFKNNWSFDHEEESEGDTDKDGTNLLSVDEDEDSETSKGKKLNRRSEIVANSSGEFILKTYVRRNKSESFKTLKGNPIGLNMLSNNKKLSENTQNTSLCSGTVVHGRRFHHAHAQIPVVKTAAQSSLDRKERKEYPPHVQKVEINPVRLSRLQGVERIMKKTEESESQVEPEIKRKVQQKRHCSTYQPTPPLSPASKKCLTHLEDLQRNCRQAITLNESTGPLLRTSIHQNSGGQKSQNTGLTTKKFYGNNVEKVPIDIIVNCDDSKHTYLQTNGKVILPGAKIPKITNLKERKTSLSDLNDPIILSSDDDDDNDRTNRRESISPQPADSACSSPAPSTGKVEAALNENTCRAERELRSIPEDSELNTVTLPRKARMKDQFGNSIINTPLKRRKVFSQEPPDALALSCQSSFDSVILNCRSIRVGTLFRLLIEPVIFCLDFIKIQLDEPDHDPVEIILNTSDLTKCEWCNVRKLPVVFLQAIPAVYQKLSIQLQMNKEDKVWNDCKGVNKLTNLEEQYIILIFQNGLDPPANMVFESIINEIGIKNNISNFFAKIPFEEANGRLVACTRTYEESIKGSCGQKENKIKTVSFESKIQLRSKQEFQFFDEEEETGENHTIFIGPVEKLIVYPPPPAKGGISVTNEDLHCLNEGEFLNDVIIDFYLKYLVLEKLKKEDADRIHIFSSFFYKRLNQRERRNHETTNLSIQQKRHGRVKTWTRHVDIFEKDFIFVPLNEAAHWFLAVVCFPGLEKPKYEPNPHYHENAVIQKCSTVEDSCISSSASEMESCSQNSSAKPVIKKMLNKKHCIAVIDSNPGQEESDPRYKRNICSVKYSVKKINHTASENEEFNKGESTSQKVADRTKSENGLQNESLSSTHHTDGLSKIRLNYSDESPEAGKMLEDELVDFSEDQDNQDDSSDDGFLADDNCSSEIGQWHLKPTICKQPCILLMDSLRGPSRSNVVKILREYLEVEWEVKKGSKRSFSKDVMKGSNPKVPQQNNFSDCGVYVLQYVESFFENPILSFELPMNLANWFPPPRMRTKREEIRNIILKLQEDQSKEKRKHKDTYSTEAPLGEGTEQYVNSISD

The target of assay [2] is T2, Replicative DNA helicase DnaB (Mycobacterium tuberculosis, UniProt P9WMR3).
T2 sequence (P9WMR3 whole entry): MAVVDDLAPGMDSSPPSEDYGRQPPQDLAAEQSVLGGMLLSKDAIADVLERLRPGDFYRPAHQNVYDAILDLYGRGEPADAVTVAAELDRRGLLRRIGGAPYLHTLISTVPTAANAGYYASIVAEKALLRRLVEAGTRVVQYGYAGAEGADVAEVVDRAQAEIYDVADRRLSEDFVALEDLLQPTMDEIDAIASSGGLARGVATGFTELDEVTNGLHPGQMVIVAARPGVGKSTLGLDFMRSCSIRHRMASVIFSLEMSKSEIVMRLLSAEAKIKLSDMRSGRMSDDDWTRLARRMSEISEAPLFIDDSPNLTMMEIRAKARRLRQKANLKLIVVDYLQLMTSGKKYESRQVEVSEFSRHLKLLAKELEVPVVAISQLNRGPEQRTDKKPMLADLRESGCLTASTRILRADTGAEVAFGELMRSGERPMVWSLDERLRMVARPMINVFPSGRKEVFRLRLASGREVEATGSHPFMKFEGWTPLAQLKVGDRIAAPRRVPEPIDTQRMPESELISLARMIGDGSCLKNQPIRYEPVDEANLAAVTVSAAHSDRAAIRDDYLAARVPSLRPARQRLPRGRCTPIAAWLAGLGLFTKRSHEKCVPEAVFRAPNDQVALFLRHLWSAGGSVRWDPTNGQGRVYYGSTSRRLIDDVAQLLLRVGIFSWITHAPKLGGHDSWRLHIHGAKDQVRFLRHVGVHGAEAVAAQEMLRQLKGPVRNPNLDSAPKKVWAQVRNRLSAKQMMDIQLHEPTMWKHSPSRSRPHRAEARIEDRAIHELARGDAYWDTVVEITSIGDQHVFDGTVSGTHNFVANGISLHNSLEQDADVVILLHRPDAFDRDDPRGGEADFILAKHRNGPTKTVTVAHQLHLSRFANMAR
The assay is described as follows: DnaB intein splicing inhibitors, dose response, biochemical, cell-free fluorescence (AID 449749).

Assay [3] concerns the target T3, Tyrosine-protein kinase receptor TYRO3 (Homo sapiens, UniProt Q06418).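 Further: TYRO3 value obtained as one member of a kinome-wide profiling panel.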
T3 sequence (Q06418 whole entry): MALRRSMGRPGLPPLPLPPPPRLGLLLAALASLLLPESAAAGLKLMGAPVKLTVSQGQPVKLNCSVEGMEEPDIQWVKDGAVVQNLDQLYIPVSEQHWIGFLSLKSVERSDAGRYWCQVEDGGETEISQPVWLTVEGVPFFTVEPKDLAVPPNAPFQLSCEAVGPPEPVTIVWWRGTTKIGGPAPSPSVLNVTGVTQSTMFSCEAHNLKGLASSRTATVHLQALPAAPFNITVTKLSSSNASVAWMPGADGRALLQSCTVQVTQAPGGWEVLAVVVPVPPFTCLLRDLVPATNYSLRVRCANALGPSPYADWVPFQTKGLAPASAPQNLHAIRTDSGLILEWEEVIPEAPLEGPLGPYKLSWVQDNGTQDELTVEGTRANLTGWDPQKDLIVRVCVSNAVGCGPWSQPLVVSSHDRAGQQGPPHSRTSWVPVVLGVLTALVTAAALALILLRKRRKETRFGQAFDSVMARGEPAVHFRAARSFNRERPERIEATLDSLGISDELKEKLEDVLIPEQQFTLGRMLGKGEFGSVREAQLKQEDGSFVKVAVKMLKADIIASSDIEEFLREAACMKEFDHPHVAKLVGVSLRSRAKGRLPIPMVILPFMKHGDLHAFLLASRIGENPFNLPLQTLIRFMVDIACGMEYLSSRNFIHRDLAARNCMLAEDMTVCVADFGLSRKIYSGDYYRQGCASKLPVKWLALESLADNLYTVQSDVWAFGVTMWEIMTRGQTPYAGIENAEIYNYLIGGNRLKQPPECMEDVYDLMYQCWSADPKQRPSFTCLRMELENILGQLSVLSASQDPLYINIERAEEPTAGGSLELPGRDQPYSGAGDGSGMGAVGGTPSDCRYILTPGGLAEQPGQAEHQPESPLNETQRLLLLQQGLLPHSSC

The source made the active and inactive calls.

On to `CCCNC(=O)c1c(N)n(CC2CCCO2)c2nc3ccccc3nc12` (centres undefined), for which the IC50 in assay [1] was 2.01 µM (active).

Regarding `O=C1/C(=C\c2cccc(O)c2O)SC(=S)N1Cc1ccccc1`, the AC50 in assay [2] was > 380 µM (inactive).

Consider `CC(C)(C)c1cc[n+](C2=C([N-]S(=O)(=O)c3cccs3)C(=O)c3ccccc3C2=O)cc1`, for which the AC50 in assay [2] was 0.98 µM (active). In addition, the IC50 in assay [1] was 5.53 µM (active).

As for `COc1c(-c2nc3ccccc3[nH]2)c(O)cc2oc(C)cc(=O)c12`, in assay [3], the Ki was 0.316 µM (active).

`COC(=O)c1c(N)nc2ccccn12`: the Ki in assay [3] is 25.1 µM (active).

As to `CCc1ccc(S(=O)(=O)/N=C2\C=C(Nc3ccc(O)cc3)C(=O)c3ccccc32)cc1`, the AC50 in assay [2] is 0.416 µM (active).

For `Cc1cc([N+](=O)[O-])cc(/C=N\NC(=O)C2COc3ccccc3O2)c1O` (centres undefined), in assay [1], the IC50 is 28.4 µM (active).

`Cc1ccc(F)c(NC(=O)Nc2ccc(-c3cccc4[nH]nc(N)c34)cc2)c1` [LINIFANIB]: the Ki in assay [3] was > 3.16 µM (inactive).

The record behind these values is ChEMBL document CHEMBL1201862, “PubChem BioAssay data set” (2004).
